{"source": "paper PMC5454592", "about": "“Pharmacological and Toxicological Properties of the Potent Oral γ-Secretase Modulator BPN-15606” (The Journal of Pharmacology and Experimental Therapeutics, 2017)", "key": {"[1]": {"test_system": "Notch proteolysis by γ-secretase", "experiment": "Notch assay (Myc-tagged Notch NΔE in H4-APP751 neuroglioma cells)", "format": "cell-based", "method": "Notch assays were carried out as described previously ([Wagner et al., 2014])."}, "[2]": {"experiment": "Metabolite identification in cryopreserved hepatocytes", "format": "in vitro ADME, mouse, rat, dog, monkey, human", "conditions": "hepatocyte cultures from five species", "method": "Test compound (1 μM) was incubated at 37°C for 4 hours with cryopreserved mouse, rat, dog, monkey, or human hepatocytes. Identification of metabolites’ molecular weights and relative abundance of the specific metabolites was based on high performance liquid chromatography (HPLC)/MS/MS peak areas, and structural characterization of metabolites was accomplished by LC/MS/MS/Q-Trap."}, "[3]": {"experiment": "PK in nonhuman primates (i.v./po)", "format": "in vivo", "conditions": "male, cynomolgus monkey, plasma; cynomolgus monkeys; 2 mg/kg po vs 1 mg/kg i.v.", "method": "Male non-naive cynomolgus monkeys (NHP) were administered BPN-15606 as a single nasogastric (po; 2 mg/kg) or i.v. (1 mg/kg) dose to assess oral bioavailability. Whole-blood samples were collected at specific time points and processed to plasma. Study in-life was conducted at Charles River Laboratories (Reno, NV). Pharmacokinetic (PK) plasma samples were shipped to SRI International for determination of drug concentrations. Samples were analyzed at SRI International using the bioanalytical method described above and validated for NHP plasma, and the LLOQ was 1 ng/ml. Data were subjected to noncompartmental analysis using WinNonlin Phoenix Model 200 (for extravascular administration) or Model 201 (for i.v. bolus administration) and the sparse sampling feature; a uniform weighting factor was applied to each data set. Time to maximum plasma concentration (Tmax) and maximum plasma concentration (Cmax) values were determined directly from the data. Area under the plasma concentration–time curve to the last time point (AUClast) values were calculated using the log/linear trapezoidal (i.v. dose) or linear up/log down trapezoidal (po dose). Values were calculated using the plasma data from composite groups. The dose administered was input to the program as mg/kg, and as a result no additional corrections for individual body weights of the animals were necessary. […]"}, "in vivo": {"experiment": "in vivo", "conditions": "rat", "description": "The objectives of this toxicity study were to determine maximum tolerated dose (MTD), characterize the potential toxicity, and calculate toxicokinetic parameters of BPN-15606 in adult male Sprague–Dawley rats (8–10 weeks of age) following daily po dose administration for 7 consecutive days, and to evaluate its potential to damage chromosomes or cause mitotic spindle abnormalities in vivo, as measured by the incidence of micronucleus formation in RNA-containing erythrocytes (bone marrow micronucleus assay). An overview of the study design is presented in Supplemental Table 8. Male rats were administered BPN-15606 po for 7 consecutive days at 30, 100, or 300 mg/kg (groups 2, 3, and 4). A control group (group 1) was given vehicle, 15% Labrasol/85% sterile water, at an equivalent dose volume (10 ml/kg). A 375 mg/kg dose (group 5) was included for determination of day 1 plasma drug levels. Clinical observations were recorded twice daily.\nAll rats in groups 1, 2, and 3 (0, 30, and 100 mg/kg, respectively) survived until their scheduled day 8 sacrifice, and all tissues specified for histologic evaluation were collected. None of the group 4 (300 mg/kg) animals survived the 7-day dosing period: three were sacrificed in moribund condition, and two were found dead. Necropsy examinations were performed on all rats, but, for group 4 animals, tissues for histopathologic examination were collected only from those rats that were sacrificed in moribund condition. Histopathology assessment was conducted on all tissues collected from all animals in groups 1 and 3, and all tissues collected from group 4 animals euthanized moribund. From group 2 rats, the following tissues were examined histopathologically: duodenum; jejunum; ileum; liver; lung; pancreas; spleen; stomach; and thymus, which were evaluated based on findings at the higher dose levels. When present, grossly altered tissues were examined histopathologically from all group 1, 2, and 3 rats, and from moribund sacrifice group 4 rats. Microscopic data were recorded, and a four-step grading system (minimal, mild, moderate, and marked) was used to define gradable changes. Terminology for data capture was consistent with International Harmonization of Nomenclature and Diagnostic Criteria as promulgated by the Society of Toxicologic Pathology."}}}
{"smiles": "COc1nc(-c2cc(C)c(N[C@@H](C)c3ccc(F)cc3)nn2)ccc1-n1cnc(C)c1", "note": "[BPN-15606, (S)-N-(1-(4-fluorophenyl)ethyl)-6-(6-methoxy-5-(4-methyl-1H-imidazol-1-yl)pyridin-2-yl)-4-methylpyridazin-3-amine]", "values": [{"measurement": "Notch proteolysis", "setting": "[1]; H4-APP751 neuroglioma cells transfected with Myc-tagged Notch (NΔE) construct, Fig. 3", "value": "does not inhibit Notch proteolysis"}, {"measurement": "Notch cleavage", "setting": "[1]; doses as high as 25 μM", "value": "does not affect Notch cleavage"}, {"measurement": "uniquely human metabolites", "setting": "[2]", "value": "absence of any unique human metabolites"}, {"measurement": "uniquely human metabolites", "setting": "[2]; listed as BPN-15605", "value": "no uniquely human metabolites identified"}, {"measurement": "bioavailability", "setting": "[3]", "value": 30.8, "unit": "%"}, {"measurement": "MTD at 7 days", "setting": "in vivo; male, Sprague-Dawley", "value": "~100", "unit": "mg/kg"}, {"measurement": "mortality", "setting": "in vivo; male, Sprague-Dawley, 300 mg/kg, 7 days", "value": "either found dead or sacrificed in moribund condition on day 3 or 4"}, {"measurement": "NOEL", "setting": "in vivo; male, Sprague-Dawley, 7 days", "value": "≥ 30", "unit": "mg/kg"}, {"measurement": "MTD at 7 days", "setting": "in vivo; male, Sprague-Dawley, po", "value": "~100", "unit": "mg/kg/day"}, {"measurement": "no-observed-effect level (NOEL)", "setting": "in vivo; male, Sprague-Dawley, po, 7 days", "value": 30, "unit": "mg/kg/day"}, {"measurement": "absolute number and percent of reticulocytes, of the control values", "setting": "in vivo; 100 mg/kg", "value": "about 20%"}, {"measurement": "decrease in mean corpuscular hemoglobin", "setting": "in vivo; 100 mg/kg", "value": 6.9, "unit": "%"}, {"measurement": "increase in RBC", "setting": "in vivo; 100 mg/kg", "value": 10.5, "unit": "%"}, {"measurement": "increase in hemoglobin", "setting": "in vivo; 100 mg/kg", "value": 10.9, "unit": "%"}, {"measurement": "liver histopathology", "setting": "in vivo; 300 mg/kg", "value": "Hepatocyte basophilia, hypertrophy, and lipidosis"}, {"measurement": "clinical observations", "setting": "in vivo; po, 30 mg/kg", "value": "appeared normal throughout the treatment period"}]}
